US20250136617A1 (The Regents of the University of Colorado, A Body Corporate, priority 2022, published 2025)
Entries after “also recorded” stand apart in the source; their conditions may differ. Where two headings read alike, the source gives them in different places.

Assays:
Type in all cases: cell-based
miR-29a = test: qPCR of miR-29a expression in human dermal fibroblasts; settings: 24 hours, 0.1, 1 and 10 uM
Method: (§1) An additional secondary screen was performed to further validate activity of UCUF-728 as a selective CXCR4 receptor modulator. Human diabetic and non-diabetic fibroblasts were cultured with increasing concentrations of the compound. The cells were incubated for 24 hours and then total cellular RNA was isolated to examine the ability of the compound to correct the abnormal expression of miR15b, and miR29a. It has been shown that human diabetic skin has increased miR-15b expression at baseline compared to non-diabetic skin (Xu et al. “The role of microRNA-15b in the impaired angiogenesis in diabetic wounds.” Wound Repair Regen 2014; 22(5):671-7).
(§2) Diabetic and non-diabetic fibroblasts were cultured with increasing concentrations of a UCUF-965 compound. The cells were incubated for 24 hours and then total cellular RNA was isolated to examine the ability of the compound to correct the abnormal expression of miR15b, and miR29a. Angiogenesis is regulated by hypoxia and the production of growth factors such as Hypoxia-inducible Factor 1-alpha (HIF-1a) and Vascular Endothelial Growth Factor (VEGF). […] MicroRNA-15b (miR-15b) has been described as a key negative modulator of angiogenesis. Under hypoxia, miR-15b is repressed, resulting in an increased level of VEGF. Over-expression of miR-15b also markedly attenuates hypoxia induced vessel tube formation and cell migration. […]

miR-15b = test: qPCR of miR-15b expression in human dermal fibroblasts; settings: 24 hours, 0.1, 1 and 10 uM
Method: as §1, §2

[1] = tested on: CEM-CCRF human lymphoblast cells; test: Transwell migration assay in CEM-CCRF lymphoblasts
Method in brief: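 CEM-CCRF cells at 5.0×10^5 cells/mL in RPMI 1640, preincubated 1 h at 37 °C, 5% CO2, then allowed to migrate in a 96-well transwell system for 3 h at 37 °C. Migrated cells in the receiver tray quantified by ATPLite luminescence.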

COc1ccc(OC)c(NS(=O)(=O)c2ccc(-c3cnc(C4CC4)o3)cc2)c1 [Oxazole Entry 19, 4-(2-Cyclopropyloxazol-5-yl)-N-(2,5-dimethoxyphenyl)benzenesulfonamide]
miR-29a expression (miR-29a; listed as UCUF-728): significant decrease in miR-29a expression level; also recorded: reduced miR-29a expression
miR-15b expression (miR-15b; listed as UCUF-728): decreased expression of miR-15b; also recorded: potent suppression of miR-15b expression
migration activity (words) ([1]; listed as UCUF-728): induced migration with similar EC50 and Emax as the B-arrestin recruitment activity; also recorded: SDF-1α-mediated response was potentiated; also recorded: dose-dependent partial activation of CEM-CCRF cell migration

CCOc1ccccc1-c1nnc2n1N=C(c1ccc(N3CCCC3)cc1)CS2 [Thiadiazine Entry 23, 3-(2-ethoxyphenyl)-6-(4-(pyrrolidin-1-yl)phenyl)-7H-[1,2,4]triazolo[3,4-b][1,3,4]thiadiazine]
miR-29a expression (miR-29a; listed as UCUF-965): significant decrease in miR-29a; also recorded: decreased
miR-15b expression (miR-15b; listed as UCUF-965): decreased expression of miR-15b
fold lower potency in migration vs β-arrestin recruitment assay [1]: 10 fold
migration activity (words) [1]: partial activator of CXCR4-mediated cell migration
EC50 ([1]; Homo sapiens, read-out: Migration log EC50, log value, n=3 (converted)): 398 nM
Migration CEM Emax (%) ([1]; listed as UCUF-965): 31%
EC50 ([1]; read-out: Migration CEM EC50, listed as UCUF-965): 400 nM
